Broadly, the EC50 is the concentration giving half of the maximal effect.

Converted amounts (≈) assume the structure as drawn.

The test system of experiment [1] is P. aeruginosa (ΔmexAB-oprM). Put plainly: Broth microdilution MIC in iron-depleted CAMHB (IDM). It is filed as cell-based. Conditions: Pseudomonas aeruginosa; iron-depleted CAMHB (IDM); […]; read-out: Minimum inhibitory concentration, P. aeruginosa ΔmexAB-oprM. A general note: Broth dilution looks for growth in wells or tubes with falling amounts of substance.
For the next experiment, the system named is N. gonorrhoeae MS11. The experiment is described as follows: Liquid broth MIC in Fastidious broth. Conditions: Neisseria gonorrhoeae, MS11, read-out: Minimum Inhibitory Concentration (MIC), N. gonorrhoeae MS11.
The subject of a further experiment is N. gonorrhoeae WHO G. Put plainly: Liquid broth MIC in Fastidious broth. Conditions: Neisseria gonorrhoeae, read-out: Minimum Inhibitory Concentration (MIC), N. gonorrhoeae WHO G.
Experiment [2] deals with B. humptydooensis ATCC BAA-2767. Put plainly: microbe, parasite or virus in culture. The following applies: Burkholderia humptydooensis, ATCCBAA2767, read-out: Minimum inhibitory concentration (MIC), B. humptydooensis ATCC BAA-2767. It is filed as cell-based.
The next experiment relates to P. aeruginosa ATCC 27853. Put plainly: microbe, parasite or virus in culture. The following applies: Pseudomonas aeruginosa, ATCC27853, read-out: Minimum inhibitory concentration, P. aeruginosa ATCC 27853. It is filed as cell-based.
The next experiment deals with A. baumannii CDC-0045. The experiment is described as follows: microbe, parasite or virus in culture. The class given is cell-based. Conditions: Acinetobacter baumannii, CDC0045, read-out: MIC, A. baumannii CDC-0045.
The next experiment relates to N. gonorrhoeae FA1090. The experiment is described as follows: Liquid broth MIC in Fastidious broth. Conditions: Neisseria gonorrhoeae, FA1090, read-out: Minimum Inhibitory Concentration (MIC), N. gonorrhoeae FA 1090.
The target in experiment [3] is T1, PBP3 from Escherichia coli (K-12) (Escherichia coli, UniProt P0AD68).
T1 construct: made in house
T1 sequence (P0AD68 1-577): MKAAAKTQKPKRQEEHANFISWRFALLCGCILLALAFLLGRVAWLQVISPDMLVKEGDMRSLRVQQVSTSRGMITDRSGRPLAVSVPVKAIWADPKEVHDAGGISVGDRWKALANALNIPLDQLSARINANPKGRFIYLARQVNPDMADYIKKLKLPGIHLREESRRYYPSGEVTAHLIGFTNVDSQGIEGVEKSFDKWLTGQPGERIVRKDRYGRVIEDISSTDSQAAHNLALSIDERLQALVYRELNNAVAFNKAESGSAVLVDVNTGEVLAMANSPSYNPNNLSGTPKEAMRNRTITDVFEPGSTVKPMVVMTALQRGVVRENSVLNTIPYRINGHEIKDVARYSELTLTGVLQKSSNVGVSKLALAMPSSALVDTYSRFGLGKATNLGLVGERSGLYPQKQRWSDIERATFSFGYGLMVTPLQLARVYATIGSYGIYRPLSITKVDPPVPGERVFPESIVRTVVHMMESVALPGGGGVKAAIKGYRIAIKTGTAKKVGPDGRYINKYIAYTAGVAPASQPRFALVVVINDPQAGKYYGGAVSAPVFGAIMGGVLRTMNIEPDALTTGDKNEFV
The experiment is described as follows: Bocillin-FL fluorescence polarization competition binding, E. coli PBP3. The method in brief:
(§1)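 Purified PBP was preincubated with inhibitor (E. coli PBP3 1.5 μM, 30 min; P. aeruginosa PBP3 0.75 μM, A. baumannii PBP3 0.2 μM and PBP1a 1 μM, 15 min), then Bocillin-FL (0.1 μM; 0.05 μM for PBP1a) added and FP read up to 60 min. EC50 = 50% loss of bound probe.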
(Fluorescence polarisation rises when a labelled molecule tumbles more slowly, as on binding a larger partner.)

A further experiment relates to N. gonorrhoeae WHO Z. Put plainly: Liquid broth MIC in Fastidious broth. Conditions: Neisseria gonorrhoeae, read-out: Minimum Inhibitory Concentration (MIC), N. gonorrhoeae WHO Z.
The test system of experiment [4] is B. thailandensis ATCC 700388. The experiment is described as follows: microbe, parasite or virus in culture. The class given is cell-based. Conditions: Burkholderia thailandensis, ATCC700388, read-out: Minimum inhibitory concentration (MIC), B. thailandensis ATCC 700388.
The subject of experiment [5] is N. gonorrhoeae ATCC 49226. The experiment is described as follows: Liquid broth MIC in Fastidious broth. The following applies: Neisseria gonorrhoeae, ATCC49226, read-out: Minimum Inhibitory Concentration (MIC), N. gonorrhoeae ATCC 49226.
The subject of another experiment is N. gonorrhoeae WHO L. Put plainly: Liquid broth MIC in Fastidious broth. Conditions: Neisseria gonorrhoeae, read-out: Minimum Inhibitory Concentration (MIC), N. gonorrhoeae WHO L.
Another experiment relates to A. baumannii ATCC 19606. Put plainly: microbe, parasite or virus in culture. It is filed as cell-based. The following applies: Acinetobacter baumannii, ATCC19606, read-out: MIC, A. baumannii ATCC 19606.
The next experiment concerns N. gonorrhoeae CDC-0197. The experiment is described as follows: Liquid broth MIC in Fastidious broth. Conditions: Neisseria gonorrhoeae, CDC0197, read-out: Minimum Inhibitory Concentration (MIC), N. gonorrhoeae CDC-0197.
Experiment [6] addresses T2, PBP3 from Pseudomonas aeruginosa (PAO1) (Pseudomonas aeruginosa, UniProt G3XD46).
T2 construct: made in house
Put plainly: Bocillin-FL fluorescence polarization competition binding, P. aeruginosa PBP3. Conditions: Binding affinity to P. aeruginosa PBP3; fluorescence polarization competition binding assay using Bocillin-FL; read-out: P. aeruginosa PBP3 Potency. The method in brief: as §1

T2 sequence (G3XD46 whole entry): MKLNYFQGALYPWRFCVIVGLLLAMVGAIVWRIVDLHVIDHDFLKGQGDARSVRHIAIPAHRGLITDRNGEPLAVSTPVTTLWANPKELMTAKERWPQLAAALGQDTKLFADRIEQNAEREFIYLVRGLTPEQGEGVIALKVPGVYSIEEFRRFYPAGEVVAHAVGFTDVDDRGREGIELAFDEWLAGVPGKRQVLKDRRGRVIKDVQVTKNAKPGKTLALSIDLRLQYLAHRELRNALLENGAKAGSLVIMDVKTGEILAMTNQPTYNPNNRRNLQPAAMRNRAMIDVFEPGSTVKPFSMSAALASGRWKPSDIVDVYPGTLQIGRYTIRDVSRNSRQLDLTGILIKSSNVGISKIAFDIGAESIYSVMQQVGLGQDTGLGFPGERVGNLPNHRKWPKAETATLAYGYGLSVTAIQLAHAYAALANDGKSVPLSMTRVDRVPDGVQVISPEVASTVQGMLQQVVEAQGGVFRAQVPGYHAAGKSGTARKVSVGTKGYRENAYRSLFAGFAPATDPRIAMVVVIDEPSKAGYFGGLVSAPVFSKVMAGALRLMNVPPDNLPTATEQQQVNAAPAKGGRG

Take `O=C(NCCCN1CCN(C(=O)NC(C(=O)N[C@H]2Cc3ccc(F)c(C(=O)O)c3OB2O)c2cc(F)c(O)c(O)c2Cl)C(=O)C1=O)c1ccccc1` (stereo partly drawn) [Example 202, (3R)-3-(2-(4-(3-benzamidopropyl)-2,3-dioxopiperazine-1-carboxamido)-2-(2-chloro-5-fluoro-3,4-dihydroxyphenyl)acetamido)-7-fluoro-2-hydroxy-3,4-dihydro-2H-benzo[e][1,2]oxaborinine-8-carboxylic acid]: the MIC is less than 1 µg/mL in experiment [1]; 16 to 32 µg/mL (≈ 21.5 to 43 µM) in the experiment on N. gonorrhoeae MS11; 16 to 32 µg/mL (≈ 21.5 to 43 µM) with N. gonorrhoeae WHO G; less than 1 µg/mL in experiment [2]; 2 to 4 µg/mL (≈ 2.69 to 5.38 µM) with P. aeruginosa ATCC 27853; less than 1 µg/mL in the experiment on A. baumannii CDC-0045. In addition, the MIC in the experiment on N. gonorrhoeae FA1090 was 4 to 8 µg/mL (≈ 5.38 to 10.8 µM); in the experiment on N. gonorrhoeae WHO Z it was more than 64 µg/mL; in [4], 8 to 16 µg/mL (≈ 10.8 to 21.5 µM); in experiment [5], 16 to 32 µg/mL (≈ 21.5 to 43 µM); in the experiment with N. gonorrhoeae WHO L it was more than 64 µg/mL; in the experiment with A. baumannii ATCC 19606, less than 1 µg/mL. Also, the MIC in the experiment with N. gonorrhoeae CDC-0197 was more than 64 µg/mL. Besides, the EC50 in experiment [3] was less than 10 µM. The IC50 in [6] was less than 10 µM.

As for `O=C(NCCCN1CCN(C(=O)NC(C(=O)N[C@H]2Cc3ccc(F)c(C(=O)O)c3OB2O)c2cc(F)c(O)c(O)c2Cl)C(=O)C1=O)c1ccc(O)cc1` (stereo partly drawn) [Example 203, (3R)-3-(2-(2-chloro-5-fluoro-3,4-dihydroxyphenyl)-2-(4-(3-(4-hydroxybenzamido)propyl)-2,3-dioxopiperazine-1-carboxamido)acetamido)-7-fluoro-2-hydroxy-3,4-dihydro-2H-benzo[e][1,2]oxaborinine-8-carboxylic acid], the MIC in experiment [1] is less than 1 µg/mL; in the experiment on N. gonorrhoeae MS11, 4 to 8 µg/mL (≈ 5.26 to 10.5 µM); in the experiment with N. gonorrhoeae WHO G, 4 to 8 µg/mL (≈ 5.26 to 10.5 µM); in [2], less than 1 µg/mL; with P. aeruginosa ATCC 27853, less than 1 µg/mL; in the experiment on A. baumannii CDC-0045 it was less than 1 µg/mL. Besides, the MIC in the experiment on N. gonorrhoeae FA1090 was less than 1 µg/mL; in the experiment on N. gonorrhoeae WHO Z it was 16 to 32 µg/mL (≈ 21.1 to 42.1 µM); in [4], less than 1 µg/mL; in experiment [5] it was 4 to 8 µg/mL (≈ 5.26 to 10.5 µM); in the experiment with N. gonorrhoeae WHO L, 16 to 32 µg/mL (≈ 21.1 to 42.1 µM); in the experiment on A. baumannii ATCC 19606, less than 1 µg/mL. Moreover, the MIC in the experiment on N. gonorrhoeae CDC-0197 was 16 to 32 µg/mL (≈ 21.1 to 42.1 µM). Besides, in experiment [3], the EC50 is less than 10 µM. Besides, the IC50 in experiment [6] was less than 10 µM.

For `O=C(NCCCN1CCN(C(=O)NC(C(=O)N[C@H]2Cc3ccc(F)c(C(=O)O)c3OB2O)c2cc(F)c(O)c(O)c2Cl)C(=O)C1=O)c1cccc(O)c1` (stereo partly drawn) [Example 204, (3R)-3-(2-(2-chloro-5-fluoro-3,4-dihydroxyphenyl)-2-(4-(3-(3-hydroxybenzamido)propyl)-2,3-dioxopiperazine-1-carboxamido)acetamido)-7-fluoro-2-hydroxy-3,4-dihydro-2H-benzo[e][1,2]oxaborinine-8-carboxylic acid], the MIC was less than 1 µg/mL in experiment [1]; 16 to 32 µg/mL (≈ 21.1 to 42.1 µM) with N. gonorrhoeae MS11; 4 to 8 µg/mL (≈ 5.26 to 10.5 µM) in the experiment on N. gonorrhoeae WHO G; less than 1 µg/mL in experiment [2]; less than 1 µg/mL in the experiment with P. aeruginosa ATCC 27853; less than 1 µg/mL in the experiment on A. baumannii CDC-0045. The MIC with N. gonorrhoeae FA1090 is 1 to 2 µg/mL (≈ 1.32 to 2.63 µM); with N. gonorrhoeae WHO Z, 16 to 32 µg/mL (≈ 21.1 to 42.1 µM); in [4], 2 to 4 µg/mL (≈ 2.63 to 5.26 µM); in experiment [5], 16 to 32 µg/mL (≈ 21.1 to 42.1 µM); with N. gonorrhoeae WHO L, more than 64 µg/mL; in the experiment on A. baumannii ATCC 19606 it was less than 1 µg/mL. Besides, the MIC in the experiment with N. gonorrhoeae CDC-0197 fell in the range of 16 to 32 µg/mL (≈ 21.1 to 42.1 µM). The same compound had an EC50 in [3] of less than 10 µM. Further, the IC50 in experiment [6] is less than 10 µM.

Values taken from US20240270762A1, “PENICILLIN-BINDING PROTEIN INHIBITORS” (priority 2021, published 2024).
